Assay results: patent US20110263507A1 (priority 2007, published 2011)
Values joined by “and” are separate entries in the source; they are usually repeats but may differ in a detail not shown here. Equal values may be shown once. Read-outs that look alike come from different tables or passages of the source. Where a SMILES comes first, the peptide text is derived from it. Where no end group is shown, it is not given here. [ ]: non-standard residue; d: D form. NMeR = CN[C@@H](CCCNC(=N)N)C(=O)O; pGlu = O=C1CC[C@@H](C(=O)O)N1; Tle = CC(C)(C)[C@H](N)C(=O)O; dOrn = NCCC[C@@H](N)C(=O)O; Dab = NCC[C@H](N)C(=O)O

Assays:
hNTS2 = target: T1, hNTS2 (Homo sapiens, UniProt O95665); test: Radioligand competition binding with [3H]NT, membranes of CHO-K1 cells expressing hNTS2; conditions: for hNTS2 Selectivity: hNTS2 over hNTS1; for higher affinity at hNTS2 than the corresponding JMV peptide at mNTS2: NT33 vs JMV 510, NT51 vs JMV 509
T1 construct: expressed in transfected cells; host or cells: CHO-K1
T1 sequence (O95665 whole entry): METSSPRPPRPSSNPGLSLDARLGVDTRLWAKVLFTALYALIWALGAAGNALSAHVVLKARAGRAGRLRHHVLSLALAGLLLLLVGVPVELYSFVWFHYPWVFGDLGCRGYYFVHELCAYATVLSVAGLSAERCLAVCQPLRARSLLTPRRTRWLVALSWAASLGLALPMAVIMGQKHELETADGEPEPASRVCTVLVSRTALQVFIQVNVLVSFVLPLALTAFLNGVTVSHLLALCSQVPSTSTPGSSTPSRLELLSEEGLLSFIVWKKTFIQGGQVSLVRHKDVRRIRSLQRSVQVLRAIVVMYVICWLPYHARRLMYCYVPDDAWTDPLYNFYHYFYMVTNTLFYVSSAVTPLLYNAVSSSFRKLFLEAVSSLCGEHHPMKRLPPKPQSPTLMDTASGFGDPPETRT

hNTS1 = target: T2, hNTS1 (Homo sapiens, UniProt P30989); test: Radioligand competition binding with [3H]NT, membranes of CHO-K1 cells expressing hNTS1; conditions: for hNTS1 Selectivity: Table 2, hNTS1 over hNTS2
T2 construct: expressed in transfected cells; host or cells: CHO-K1
T2 sequence (P30989 whole entry): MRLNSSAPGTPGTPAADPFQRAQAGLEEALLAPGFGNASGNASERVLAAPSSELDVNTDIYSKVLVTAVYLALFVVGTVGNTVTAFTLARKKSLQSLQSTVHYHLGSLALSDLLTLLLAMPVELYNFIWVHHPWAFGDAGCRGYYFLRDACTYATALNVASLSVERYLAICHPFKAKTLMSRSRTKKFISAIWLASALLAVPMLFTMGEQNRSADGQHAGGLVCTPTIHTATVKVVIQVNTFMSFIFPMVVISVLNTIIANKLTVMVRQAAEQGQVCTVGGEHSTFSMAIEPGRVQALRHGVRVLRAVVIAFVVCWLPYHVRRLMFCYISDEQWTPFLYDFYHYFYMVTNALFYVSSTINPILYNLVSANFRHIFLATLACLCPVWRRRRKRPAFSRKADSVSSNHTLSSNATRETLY
Method: CHO-K1 cells that had been stably transfected separately with the hNTS1 or hNTS2 genes were cultured in 150 mm (500 cm^2) Petri plates with 35 ml of Dulbecco's modified Eagle's medium containing 100 μM minimal essential medium nonessential amino acids (Life Technologies, Inc.) supplemented with 5% (v/v) FetalClone II bovine serum product (Hyclone Labs, Logan, Utah). […] The cellular pellet (in Tris-HCl buffer) was stored at […] until the radioligand binding was performed.
For use in binding assays, crude membrane preparations were prepared by centrifugation of the cellular pellet at 35,600×g for 10 min. The supernatant was decanted and discarded, and the cellular pellet was resuspended in 1 ml of Tris-HCl buffer followed by homogenization with a Brinkmann Polytron at setting 5.5 for 15 s. Centrifugation was repeated as above, the supernatant was decanted and discarded, and the cellular pellet was resuspended in 1 ml of Tris-HCl buffer followed by homogenization. Centrifugation was repeated a third time, the supernatant was discarded, and the final cellular pellet was suspended in 0.5-2.5 ml of Tris-HCl buffer. Protein concentration of the membrane preparation was estimated by the method of Lowry et al. using bovine serum albumin as a standard.
Incubation was at 20° C. for 40 min. The assay was routinely terminated by addition of ice-cold 0.9% NaCl (5×1.5 ml), followed by rapid filtration through a GF/B filter strip that had been pretreated with 0.2% or 2% polyethyleneimine. Details of binding assays have been described previously. […] Data were analyzed using the LIGAND program.

[1] = Table 2, read-out: hNTS2 Geometric Mean ∀ SEM (equilibrium dissociation constant Kd)
[2] = read-out: hNTS1 Geometric Mean ∀ SEM (equilibrium dissociation constant Kd)

Molecule	Kd (hNTS2; [1])	hNTS2 Selectivity (hNTS2; Table 2)	hNTS1 Selectivity (hNTS1)	Kd (hNTS1; [2])	further results
RRPAIL [NT08, [Ala^11]NT(8-13)]	58 ± 5 nM	–	–	–	Kd (hNTS1): 2500 ± 200 nM
CC[C@H](C)[C@H](NC(=O)[C@H](Cc1ccc(O)cc1)NC(=O)[C@@H]1CCCN1C(=O)[C@H](CCCN)NC(=O)[C@H](N)CCCN)C(=O)N[C@@H](CC(C)C)C(=O)O [NT27, [D-Orn^8,L-Orn^9]NT(8-13)]	24 ± 2 nM	0.2	6.6	3.6 ± 0.2 nM	–
CC[C@H](C)[C@H](NC(=O)[C@H](Cc1ccc(O)cc1)NC(=O)[C@@H]1CCCN1C(=O)[C@@H](CCCN)NC(=O)[C@H](N)CCCN)C(=O)N[C@@H](CC(C)C)C(=O)O [NT28, [D-Orn^8,D-Orn^9]NT(8-13)]	1900 ± 100 nM	0.3	3.2	600 ± 20 nM	–
CC[C@H](C)[C@H](NC(=O)[C@H](Cc1ccc(O)cc1)NC(=O)[C@@H]1CCCN1C(=O)[C@H](CCCNC(=N)N)NC(=O)[C@H](N)CCCN)C(=O)N[C@@H](CC(C)C)C(=O)O [NT22, [D-Orn^8]NT(8-13)] (H-[dOrn]RPYIL-OH; N-terminus and C-terminus assumed)	5.9 ± 0.2 nM	0.3	3.2	1.9 ± 0.2 nM	–
RKPYIL [NT18, [L-Lys^9]NT(8-13)]	–	1.3	0.8	–	Kd (hNTS2): 1.18 ± 0.09 nM; Kd (hNTS1): 1.49 ± 0.09 nM
CC[C@H](C)[C@H](NC(=O)[C@@H](Cc1ccc(O)cc1)NC(=O)[C@@H]1CCCN1C(=O)[C@@H](CCCN)NC(=O)[C@@H](N)CCCNC(=N)N)C(=O)N[C@@H](CC(C)C)C(=O)O [NT37, [D-Orn^9,D-Tyr^11]NT(8-13)] (H-R[dOrn]P[dY]IL-OH; N-terminus and C-terminus assumed)	1800 ± 100 nM	–	–	–	Kd at hNTS2 in words (hNTS2; text b54): micromolar Kd's; binding / Kd at hNTS1 in words (hNTS1; text b54): no detectable binding
CN[C@@H](CCCNC(=N)N)C(=O)N[C@H](CCCN)C(=O)N1CCC[C@H]1C(=O)N[C@@H](Cc1c[nH]c2ccccc12)C(=O)N[C@H](C(=O)N[C@@H](CC(C)C)C(=O)O)C(C)(C)C [NT78T, [N-methyl-Arg^8,D-Orn^9,L-Trp^11,tert-Leu^12]NT(8-13)] (H-[NMeR][dOrn]PW[Tle]L-OH; N-terminus and C-terminus assumed)	660 ± 50 nM	2.1	0.5	1400 ± 300 nM	–
CC[C@H](C)[C@H](NC(=O)[C@H](Cc1ccc(O)cc1)NC(=O)[C@@H]1CCCN1C(=O)[C@H](CCCNC(=N)N)NC(=O)[C@@H](N)CCN)C(=O)N[C@@H](CC(C)C)C(=O)O [NT29, [DAB^8]NT(8-13)] (H-[Dab]RPYIL-OH; N-terminus and C-terminus assumed)	6.5 ± 0.3 nM	0.2	5.6	1.2 ± 0.1 nM	–
CC[C@H](C)[C@H](NC(=O)[C@H](Cc1ccc(O)cc1)NC(=O)[C@@H]1CCCN1C(=O)[C@@H](CCCCN)NC(=O)[C@@H](N)CCCNC(=N)N)C(=O)N[C@@H](CC(C)C)C(=O)O [NT03, [D-Lys^9]NT(8-13)] (H-R[dK]PYIL-OH; N-terminus and C-terminus assumed)	–	2.5	0.4	–	Kd (hNTS2): 280 ± 30 nM; Kd (hNTS1): 690 ± 30 nM
CC[C@H](C)[C@H](NC(=O)[C@H](Cc1ccc(O)cc1)NC(=O)[C@@H]1CCCN1C(=O)[C@@H](CCCN)NC(=O)[C@@H](N)CCCNC(=N)N)C(=O)N[C@@H](CC(C)C)C(=O)O [NT24, [D-Orn^9]NT(8-13)] (H-R[dOrn]PYIL-OH; N-terminus and C-terminus assumed)	790 ± 20 nM	0.2	6.6	120 ± 10 nM	–
CC[C@H](C)[C@H](NC(=O)[C@@H]1Cc2ccccc2CN1C(=O)[C@@H]1CCCN1C(=O)[C@H](CCCNC(=N)N)NC(=O)[C@@H](N)CCCNC(=N)N)C(=O)N[C@@H](CC(C)C)C(=O)O [NT47, [L-TIC^11]NT(8-13)]	14 nM	–	–	–	–
RRPYVL [NT10, [L-Val^12]NT(8-13)]	–	1.3	0.8	–	Kd (hNTS2): 8.8 ± 0.4 nM; Kd (hNTS1): 11.3 ± 0.6 nM
CC[C@H](C)[C@H](NC(=O)[C@H](Cc1ccc(O)cc1)NC(=O)[C@@H]1CCCN1C(=O)[C@H](CCCN)NC(=O)[C@@H](N)CCCN)C(=O)N[C@@H](CC(C)C)C(=O)O [NT25, [L-Orn^8,L-Orn^9]NT(8-13)]	3.9 ± 0.2 nM	0.8	1.3	3 ± 0.3 nM	–
CC[C@H](C)[C@H](NC(=O)[C@H](Cc1ccc(O)cc1)NC(=O)[C@@H]1CCCN1C(=O)[C@@H](CCCNC(=N)N)NC(=O)[C@@H](N)CCCCN)C(=O)N[C@@H](CC(C)C)C(=O)O [NT16, [L-Lys^8,D-Arg^9]NT(8-13)] (H-K[dR]PYIL-OH; N-terminus and C-terminus assumed)	39.6 ± 0.6 nM	0.8	1.2	33 ± 6 nM	–
CC[C@H](C)[C@H](NC(=O)[C@H](Cc1ccc(O)cc1)NC(=O)[C@@H]1CCCN1C(=O)[C@H](CCCCN)NC(=O)[C@@H](N)CCCCN)C(=O)N[C@@H](CC(C)C)C(=O)O [NT19, [L-Lys^8,L-Lys^9]NT(8-13)]	–	–	–	–	Kd (hNTS2): 2.4 ± 0.3 nM
CC(C)C[C@H](NC(=O)[C@@H](NC(=O)[C@H](Cc1c[nH]c2ccccc12)NC(=O)[C@@H]1CCCN1C(=O)[C@@H](CCCN)NC(=O)[C@@H](N)CCCNC(=N)N)C(C)(C)C)C(=O)O [NT77T, [D-Orn^9,L-Trp^11,tert-Leu^12]NT(8-13)] (H-R[dOrn]PW[Tle]L-OH; N-terminus and C-terminus assumed)	320 ± 20 nM	4.8	0.2	1530 ± 80 nM	–
CC[C@H](C)[C@H](NC(=O)[C@H](Cc1ccc(O)cc1)NC(=O)[C@@H]1CCCN1C(=O)[C@@H](CCCN)NC(=O)[C@H](CCCNC(=N)N)NC(=O)[C@@H]1CCCN1C(=O)[C@H](CCCCN)NC(=O)[C@H](CC(N)=O)NC(=O)[C@H](CCC(=O)O)NC(=O)[C@H](Cc1ccc(O)cc1)NC(=O)[C@H](CC(C)C)NC(=O)[C@@H]1CCC(=O)N1)C(=O)N[C@@H](CC(C)C)C(=O)O [NT61, [D-Orn^9]NT(1-13)] ([pGlu]LYENKPR[dOrn]PYIL-OH; C-terminus assumed)	–	0.2	4.4	1500 ± 100 nM	Kd (hNTS2; text b54, read-out: Kd at hNTS2): 6600 nM
CC[C@H](C)[C@H](NC(=O)[C@H]1Cc2ccccc2CN1C(=O)[C@@H]1CCCN1C(=O)[C@H](CCCNC(=N)N)NC(=O)[C@@H](N)CCCNC(=N)N)C(=O)N[C@@H](CC(C)C)C(=O)O [NT48, [D-TIC^11]NT(8-13)]	255 nM	–	–	–	–
CC[C@H](C)[C@H](NC(=O)[C@H](Cc1ccc(O)cc1)NC(=O)[C@@H]1CCCN1C(=O)[C@@H](CCCCN)NC(=O)[C@H](N)CCCCN)C(=O)N[C@@H](CC(C)C)C(=O)O [NT20, [D-Lys^8,D-Lys^9]NT(8-13)]	–	–	–	–	Kd (hNTS2): 730 ± 60 nM
CC[C@H](C)[C@H](NC(=O)[C@@H](Cc1ccc2ccccc2c1)NC(=O)[C@@H]1CCCN1C(=O)[C@H](CCCNC(=N)N)NC(=O)[C@@H](N)CCCNC(=N)N)C(=O)N[C@@H](CC(C)C)C(=O)O [NT51, [D-3,2-Nal^11]NT(8-13)]	–	–	–	–	decrease in affinity at NTS2 on changing from L- to D-3,2-Nal (hNTS2; NT33 compared to NT51): < 2 fold; higher affinity at hNTS2 than the corresponding JMV peptide at mNTS2 (hNTS2): 28 fold and ~30 fold; Kd (hNTS2; text, read-out: Kd at hNTS2): 32.9 nM
CC[C@H](C)[C@H](NC(=O)[C@H](Cc1cccc2ccccc12)NC(=O)[C@@H]1CCCN1C(=O)[C@H](CCCNC(=N)N)NC(=O)[C@@H](N)CCCNC(=N)N)C(=O)N[C@@H](CC(C)C)C(=O)O [NT49, [L-3,1-Nal^11]NT(8-13)]	1.28 ± 0.05 nM	–	–	–	–
CC[C@H](C)[C@H](NC(=O)[C@H](Cc1ccc2ccccc2c1)NC(=O)[C@@H]1CCCN1C(=O)[C@H](CCCNC(=N)N)NC(=O)[C@@H](N)CCCNC(=N)N)C(=O)N[C@@H](CC(C)C)C(=O)O [NT33, [L-3,2-Nal^11]NT(8-13)]	18 ± 1 nM	–	–	–	higher affinity at hNTS2 than the corresponding JMV peptide at mNTS2 (hNTS2): 12 fold
